Where a name gives a salt, the structure may show the parent alone. Read-outs that look alike come from different tables or passages of the source.
Columns and labels:
[1] = Doxycycline solubility in various solvents; assay type: physicochemical; conditions: supernatant
Protocol: Saturated solutions of doxycycline hyclate are prepared by stirring doxycycline in approximately 20 g of solvents for over 48 hours at room temperature. By the end of stirring, all samples have solids in equilibrium with liquids. The samples are filtered and subjected to quantification using UPLC.
Each composition was subjected to centrifugation and the supernatant with dissolved active agent analyzed. The weight /weight percentage of active agent found dissolved in each solvent is shown below: […]

[2] = Cyclomethicone 5 NF, Diisopropyl adipate, Hydrogenated Castor Oil, MCT Oil, cited from earlier work
[3] = Compatibility test of active agent with excipients; assay type: physicochemical; conditions: excipients: soybean oil, paraffin 57-64, polyvinyl alcohol and hydroxypropylcellulose (klucel)
Protocol: Compatibility tests were performed as described in US8,343,945 and US8,945,516, which are incorporated here by reference with respect to the excipients and their compatibility described herein. […] The mixture was assessed for active agent degradation and optionally for color change.

[4] = in Isopropyl myristate, room temperature, 72 hours
[5] = in Oleic acid, room temperature, 72 hours

Row | Doxycycline content (solubility) [1, 4] | Doxycycline content (solubility) [1, 5] | Doxycycline content (solubility) ([1]; in 1,3 propane-di-ol, room temperature, 72 hours) [% w/w] | Doxycycline content (solubility) ([1]; in Dimethyl isosorbide, excess doxycycline hyclate stirred at room temperature for 72 hours) [% w/w] | Doxycycline content (solubility) ([1]; in Dimethyl sulfoxide, room temperature, 72 hours) [% w/w] | Doxycycline content (solubility) ([1]; in Ethanol, room temperature, 72 hours) [% w/w] | Doxycycline content (solubility) ([1]; in Glycerin, room temperature, 72 hours) [% w/w] | Doxycycline content (solubility) ([1]; in Hexylene glycol, room temperature, 72 hours) [% w/w] | Doxycycline content (solubility) ([1]; in Isopropanol, room temperature, 72 hours) [% w/w] | Doxycycline content (solubility) ([1]; in Oleyl alcohol, room temperature, 72 hours) [% w/w] | Doxycycline content (solubility) ([1]; in Propylene carbonate, room temperature, 72 hours) [% w/w] | Doxycycline content (solubility) ([1]; in Propylene glycol, room temperature, 72 hours) [% w/w] | Doxycycline content (solubility) ([1]; in Transcutol, room temperature, 72 hours) [% w/w] | Compatibility with additional excipients [3] | Molecule | Compatibility with excipients ([2]; excipients: Cetearyl octanoate, Ethanol 95%, Hexylene glycol, Isostearic acid, Mineral Oil, Myristyl alcohol, Oleyl alcohol, PEG 100 Stearate, PPG-15 Stearyl Ether, Sorbitan Monostearate (SPAN 60), Stearyl alcohol) | Compatibility with excipients ([2]; excipients: Aerosil, Almond oil, Avocado oil, Beeswax, Behenyl alcohol, Calendula oil, Castor oil, Cetearyl octanoate, Cetostearyl alcohol, Cetyl alcohol, Cocoglycerides, Coconut oil, Gelled mineral oil, Grape seed oil, Hard Fat, Isododecane, isopropyl myristate, Isostearyl alcohol, Jojoba oil, Menthol, Myrist)
1 | Not detected | Not detected |  |  |  |  |  |  |  |  |  |  |  |  | C[C@H]1c2cccc(O)c2C(=O)C2=C(O)[C@]3(O)C(=O)C(C(N)=O)=C(O)[C@@H](N(C)C)[C@@H]3[C@@H](O)[C@@H]21 [doxycycline, Doxycycline] |  | 
2 | Not detected | Not detected | 21.56 | 4.12 | 25.34 | 3.15 | 18.28 | 5.47 | 1.67 | 0.29 | 0.78 | 34.17 | 16.30 |  | Doxycycline Hyclate [Dox hyclate] | compatible | 
3 |  |  |  |  |  |  |  |  |  |  |  |  |  | compatible | CN(C)c1ccc(O)c2c1C[C@H]1C[C@H]3[C@H](N(C)C)C(O)=C(C(N)=O)C(=O)[C@@]3(O)C(O)=C1C2=O [minocycline HCL, Minocycline HCL] |  | compatible
